Experimental data: ChEMBL document CHEMBL1151620, “Rollinone, a new cytotoxic acetogenin from Rollinia papilionella” (1984)

Tests used:
P388 [1] = experiment: In vivo antitumor activity against mouse P388 lymphocytic leukemia in mouse at 1.4 mg/kg; assay type: functional
P388 [2] = experiment: Cytotoxicity against mouse P388 cells; assay type: functional

## CCCCCCCCCCC(O)C1CCC(C2CCC(C(O)C(=O)CCCCCCCCCCCC3CC(C)OC3=O)O2)O1 (configuration not stated) [ROLLINONE]
P388 [1]
  T/C: 147%
P388 [2]
  ED50: <1 ×10⁻⁵ ug/ml
